Laboratory results taken from patent publication US12662479B2 (Foghorn Therapeutics Inc., priority 2020, dated 2026).
Structures can show the parent of a compound that is named as a salt.

What was measured:
HiBit-BRM fusion protein = target: T1, HiBit-BRM fusion protein (Homo sapiens, UniProt P51531); assay: HiBiT-BRM cell-based degradation assay (Nano-Glo HiBiT Lytic Detection, 24 h); conditions: HeLa cells expressing HiBiT-BRM; for DC50: read-out: BRM HiBit Degradation IC50; for BRM HiBit Degradation Maximum measured: top dose 30 μM
T1 construct: expressed in transfected cells
Procedure, shortened: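 Luminescence from reconstituted NanoBiT luciferase in lysed HeLa HiBiT-BRM cells served as the measure of remaining BRM after 24 h treatment. Compounds were tested from 30 μM final downward in 3-fold steps. DMSO and 2 μM of a standard BRM/BRG1 degrader defined the scale limits.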

[1] = target: T2, HiBit-BRG1 fusion protein (Homo sapiens, UniProt P51532); assay: HiBiT-BRG1 cell-based degradation assay (Nano-Glo HiBiT Lytic Detection, 24 h); conditions: HeLa cells expressing HiBit-BRG1 and LgBit; for DC50: read-out: BRG1 HiBit Degradation IC50; for Dmax: HeLa, top dose 30 μM, read-out: BRG1 HiBit Degradation Maximum measured
T2 construct: expressed in transfected cells
Procedure, shortened: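 Stable HeLa line expressing HiBiT-BRG1 and LgBiT, seeded at 5000 cells/well; luminescence read after lytic Nano-Glo HiBiT reagent and 10 min shaking at RT. % degradation normalised between DMSO (high control) and 2 μM reference BRM/BRG1 degrader (low control).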

T1 sequence (P51531 whole entry, the tested form may be a part): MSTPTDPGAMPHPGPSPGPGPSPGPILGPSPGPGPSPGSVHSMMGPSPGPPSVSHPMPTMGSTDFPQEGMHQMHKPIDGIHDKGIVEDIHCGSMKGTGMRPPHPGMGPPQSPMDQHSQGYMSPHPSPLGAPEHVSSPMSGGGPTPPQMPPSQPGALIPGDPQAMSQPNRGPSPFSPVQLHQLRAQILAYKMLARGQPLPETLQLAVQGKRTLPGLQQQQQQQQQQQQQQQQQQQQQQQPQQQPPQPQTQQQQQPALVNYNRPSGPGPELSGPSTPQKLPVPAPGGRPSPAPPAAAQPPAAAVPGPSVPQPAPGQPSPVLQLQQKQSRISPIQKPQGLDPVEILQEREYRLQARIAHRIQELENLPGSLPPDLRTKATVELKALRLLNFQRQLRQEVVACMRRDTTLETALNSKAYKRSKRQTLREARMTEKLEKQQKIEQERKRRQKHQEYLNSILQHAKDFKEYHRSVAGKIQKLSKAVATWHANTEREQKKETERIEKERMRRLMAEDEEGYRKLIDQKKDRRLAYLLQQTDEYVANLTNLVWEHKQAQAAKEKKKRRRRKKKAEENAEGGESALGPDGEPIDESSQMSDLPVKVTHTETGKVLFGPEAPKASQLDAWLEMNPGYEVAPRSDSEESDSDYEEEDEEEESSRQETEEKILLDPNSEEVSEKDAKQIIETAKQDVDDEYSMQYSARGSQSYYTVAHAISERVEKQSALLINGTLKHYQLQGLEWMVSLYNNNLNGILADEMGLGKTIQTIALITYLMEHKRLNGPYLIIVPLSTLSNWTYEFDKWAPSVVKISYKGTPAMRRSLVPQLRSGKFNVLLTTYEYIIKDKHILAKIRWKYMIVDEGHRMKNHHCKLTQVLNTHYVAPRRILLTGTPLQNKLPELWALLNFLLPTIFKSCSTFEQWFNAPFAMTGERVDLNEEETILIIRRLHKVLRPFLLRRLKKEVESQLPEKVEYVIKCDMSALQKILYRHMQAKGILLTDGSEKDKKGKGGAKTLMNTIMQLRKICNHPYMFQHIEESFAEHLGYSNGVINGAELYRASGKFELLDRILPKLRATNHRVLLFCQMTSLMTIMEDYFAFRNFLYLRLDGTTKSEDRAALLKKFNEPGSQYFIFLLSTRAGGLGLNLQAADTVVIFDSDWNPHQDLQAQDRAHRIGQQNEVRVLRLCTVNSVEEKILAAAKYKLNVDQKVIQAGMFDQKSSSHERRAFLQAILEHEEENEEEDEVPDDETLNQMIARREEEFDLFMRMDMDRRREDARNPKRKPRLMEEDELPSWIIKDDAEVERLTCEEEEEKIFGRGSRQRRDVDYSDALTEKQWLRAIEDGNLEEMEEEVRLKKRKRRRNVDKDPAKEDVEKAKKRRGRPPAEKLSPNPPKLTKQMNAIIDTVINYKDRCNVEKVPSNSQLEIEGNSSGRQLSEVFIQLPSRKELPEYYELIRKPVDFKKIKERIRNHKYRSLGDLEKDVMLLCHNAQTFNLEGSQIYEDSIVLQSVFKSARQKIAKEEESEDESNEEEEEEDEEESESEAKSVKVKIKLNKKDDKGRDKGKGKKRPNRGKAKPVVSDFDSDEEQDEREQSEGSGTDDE
T2 sequence (P51532 whole entry, the tested form may be a part): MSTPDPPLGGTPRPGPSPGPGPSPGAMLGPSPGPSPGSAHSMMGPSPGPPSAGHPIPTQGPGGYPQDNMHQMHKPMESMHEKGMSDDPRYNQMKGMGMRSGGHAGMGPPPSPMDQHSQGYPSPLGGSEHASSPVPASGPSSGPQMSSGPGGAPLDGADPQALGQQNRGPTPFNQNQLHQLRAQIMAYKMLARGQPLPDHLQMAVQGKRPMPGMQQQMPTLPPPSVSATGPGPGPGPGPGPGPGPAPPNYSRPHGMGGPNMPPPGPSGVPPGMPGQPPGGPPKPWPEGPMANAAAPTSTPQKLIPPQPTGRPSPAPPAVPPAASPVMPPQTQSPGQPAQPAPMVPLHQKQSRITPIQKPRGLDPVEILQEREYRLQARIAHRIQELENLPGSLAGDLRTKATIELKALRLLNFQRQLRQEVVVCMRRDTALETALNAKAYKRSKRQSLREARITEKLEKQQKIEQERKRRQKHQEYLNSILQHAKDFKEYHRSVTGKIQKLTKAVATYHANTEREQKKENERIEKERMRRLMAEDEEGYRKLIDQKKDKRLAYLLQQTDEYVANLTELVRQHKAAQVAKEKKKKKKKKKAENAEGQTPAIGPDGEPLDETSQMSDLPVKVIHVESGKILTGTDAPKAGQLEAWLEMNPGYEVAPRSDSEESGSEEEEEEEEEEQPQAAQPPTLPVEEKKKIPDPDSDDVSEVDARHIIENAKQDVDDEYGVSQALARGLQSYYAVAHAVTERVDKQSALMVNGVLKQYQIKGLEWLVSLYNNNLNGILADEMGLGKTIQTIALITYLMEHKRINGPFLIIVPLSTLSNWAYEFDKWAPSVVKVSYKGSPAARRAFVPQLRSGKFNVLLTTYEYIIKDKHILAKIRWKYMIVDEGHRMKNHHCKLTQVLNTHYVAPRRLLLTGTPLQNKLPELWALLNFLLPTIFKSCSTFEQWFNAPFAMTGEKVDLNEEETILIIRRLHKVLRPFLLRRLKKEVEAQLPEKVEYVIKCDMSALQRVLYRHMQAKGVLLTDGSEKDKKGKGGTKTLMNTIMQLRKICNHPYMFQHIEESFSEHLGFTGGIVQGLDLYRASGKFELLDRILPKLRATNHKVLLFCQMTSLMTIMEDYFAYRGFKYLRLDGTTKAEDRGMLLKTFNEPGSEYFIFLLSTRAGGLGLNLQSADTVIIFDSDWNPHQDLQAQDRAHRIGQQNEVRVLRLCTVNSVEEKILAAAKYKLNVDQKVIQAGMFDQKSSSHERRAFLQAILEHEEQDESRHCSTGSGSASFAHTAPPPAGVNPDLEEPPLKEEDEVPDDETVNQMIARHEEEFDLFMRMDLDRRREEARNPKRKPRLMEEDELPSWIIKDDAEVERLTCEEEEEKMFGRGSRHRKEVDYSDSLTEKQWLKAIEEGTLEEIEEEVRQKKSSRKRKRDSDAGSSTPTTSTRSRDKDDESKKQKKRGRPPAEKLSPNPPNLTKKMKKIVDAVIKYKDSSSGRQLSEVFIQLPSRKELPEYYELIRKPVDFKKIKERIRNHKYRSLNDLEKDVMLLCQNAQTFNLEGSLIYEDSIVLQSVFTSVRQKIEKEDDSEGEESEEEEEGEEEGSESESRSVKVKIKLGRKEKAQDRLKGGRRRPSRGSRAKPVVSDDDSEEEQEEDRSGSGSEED

SMILES | DC50 (HiBit-BRM fusion protein) [µM] | BRM HiBit Degradation Maximum measured (HiBit-BRM fusion protein) | DC50 [1] [µM] | Dmax [1] [%]
CS(=O)(=O)n1ccc(C(=O)NCC(=O)Nc2nc(C3CCCN(C(=O)CCN4CCN(c5ccc6c(c5)C(=O)N(C5CCC(=O)NC5=O)C6=O)CC4)C3)cs2)c1 (stereo not drawn) [Compound 146, N-{4-[1-(3-{4-[2-(2,6-dioxopiperidin-3-yl)-1,3-dioxo-2,3-dihydro-1H-isoindol-5-yl]piperazin-1-yl}propanoyl)piperidin-3-yl]-1,3-thiazol-2-yl}-2-[(1-methanesulfonyl-1H-pyrrol-3-yl)formamido]acetamide formate] | > 10 | C (‘C’ = Maximum degradation <50%) | > 10 | < 50
CS(=O)(=O)n1ccc(C(=O)NCC(=O)Nc2nc(C3CCCN(C(=O)CCCCOc4cccc5c4C(=O)N(C4CCC(=O)NC4=O)C5=O)C3)cs2)c1 (stereo not drawn) [Compound 147, N-{4-[1-(5-{[2-(2,6-dioxopiperidin-3-yl)-1,3-dioxo-2,3-dihydro-1H-isoindol-4-yl]oxy}pentanoyl)piperidin-3-yl]-1,3-thiazol-2-yl}-2-[(1-methanesulfonyl-1H-pyrrol-3-yl)formamido]acetamide] | > 10 | C (‘C’ = Maximum degradation <50%) | > 10 | < 50
CS(=O)(=O)n1ccc(C(=O)NCC(=O)Nc2nc(C3CCCN(C(=O)CCCCCCCOc4cccc5c4C(=O)N(C4CCC(=O)NC4=O)C5=O)C3)cs2)c1 (stereo not drawn) [Compound 148, N-{4-[1-(8-{[2-(2,6-dioxopiperidin-3-yl)-1,3-dioxo-2,3-dihydro-1H-isoindol-4-yl]oxy}octanoyl)piperidin-3-yl]-1,3-thiazol-2-yl}-2-[(1-methanesulfonyl-1H-pyrrol-3-yl)formamido]acetamide] | > 10 | C (‘C’ = Maximum degradation <50%) | > 10 | < 50

The remaining lines, values ahead:

DC50 (HiBit-BRM fusion protein) [µM] | BRM HiBit Degradation Maximum measured (HiBit-BRM fusion protein) | DC50 [1] [µM] | Dmax [1] [%] | SMILES
> 10 | C (‘C’ = Maximum degradation <50%) | > 10 | < 50 | CS(=O)(=O)n1ccc(C(=O)NCC(=O)Nc2nc(C3CCCN(C(=O)CCOCCOCCOc4ccc5c(c4)C(=O)N(C4CCC(=O)NC4=O)C5=O)C3)cs2)c1 (stereo not drawn) [Compound 144, N-[4-(1-{3-[2-(2-{[2-(2,6-dioxopiperidin-3-yl)-1,3-dioxo-2,3-dihydro-1H-isoindol-5-yl]oxy}ethoxy)ethoxy]propanoyl}piperidin-3-yl)-1,3-thiazol-2-yl]-2-[(1-methanesulfonyl-1H-pyrrol-3-yl)formamido]acetamide]
> 10 | C (‘C’ = Maximum degradation <50%) | > 10 | < 50 | CS(=O)(=O)n1ccc(C(=O)NCC(=O)Nc2nc(C3CCCN(C(=O)C4CCN(CCOc5ccc6c(c5)C(=O)N(C5CCC(=O)NC5=O)C6=O)CC4)C3)cs2)c1 (stereo not drawn) [Compound 145, N-(4-{1-[1-(2-{[2-(2,6-dioxopiperidin-3-yl)-1,3-dioxo-2,3-dihydro-1H-isoindol-5-yl]oxy}ethyl)piperidine-4-carbonyl]piperidin-3-yl}-1,3-thiazol-2-yl)-2-[(1-methanesulfonyl-1H-pyrrol-3-yl)formamido]acetamide formate]
0.1 to 1 | A (‘A’ = Maximum degradation >75%) | 0.1 to 1 | > 75 | CS(=O)(=O)n1ccc(C(=O)NCC(=O)Nc2nc(-c3cccc(-c4ccnc(C5(C(=O)NCC6CCN(CCOc7ccc8c(c7)C(=O)N(C7CCC(=O)NC7=O)C8=O)CC6)CC5)c4)c3)cs2)c1 (stereo not drawn) [Compound 149, N-[[1-(2-[[2-(2,6-dioxopiperidin-3-yl)-1,3-dioxoisoindol-5-yl]oxy]ethyl)piperidin-4-yl]methyl]-1-[4-[3-(2-[2-[(1-methanesulfonylpyrrol-3-yl)formamido]acetamido]-1,3-thiazol-4-yl)phenyl]pyridin-2-yl]cyclopropane-1-carboxamide]
